Source: ChEMBL document CHEMBL1139947, “Bridged androstenediol analogs as ER-beta selective SERMs” (Bioorg Med Chem Lett, 2007)

How the values were obtained:
Androgen receptor = target: T1, Androgen receptor (Homo sapiens, UniProt P10275)
T1 sequence (P10275 whole entry): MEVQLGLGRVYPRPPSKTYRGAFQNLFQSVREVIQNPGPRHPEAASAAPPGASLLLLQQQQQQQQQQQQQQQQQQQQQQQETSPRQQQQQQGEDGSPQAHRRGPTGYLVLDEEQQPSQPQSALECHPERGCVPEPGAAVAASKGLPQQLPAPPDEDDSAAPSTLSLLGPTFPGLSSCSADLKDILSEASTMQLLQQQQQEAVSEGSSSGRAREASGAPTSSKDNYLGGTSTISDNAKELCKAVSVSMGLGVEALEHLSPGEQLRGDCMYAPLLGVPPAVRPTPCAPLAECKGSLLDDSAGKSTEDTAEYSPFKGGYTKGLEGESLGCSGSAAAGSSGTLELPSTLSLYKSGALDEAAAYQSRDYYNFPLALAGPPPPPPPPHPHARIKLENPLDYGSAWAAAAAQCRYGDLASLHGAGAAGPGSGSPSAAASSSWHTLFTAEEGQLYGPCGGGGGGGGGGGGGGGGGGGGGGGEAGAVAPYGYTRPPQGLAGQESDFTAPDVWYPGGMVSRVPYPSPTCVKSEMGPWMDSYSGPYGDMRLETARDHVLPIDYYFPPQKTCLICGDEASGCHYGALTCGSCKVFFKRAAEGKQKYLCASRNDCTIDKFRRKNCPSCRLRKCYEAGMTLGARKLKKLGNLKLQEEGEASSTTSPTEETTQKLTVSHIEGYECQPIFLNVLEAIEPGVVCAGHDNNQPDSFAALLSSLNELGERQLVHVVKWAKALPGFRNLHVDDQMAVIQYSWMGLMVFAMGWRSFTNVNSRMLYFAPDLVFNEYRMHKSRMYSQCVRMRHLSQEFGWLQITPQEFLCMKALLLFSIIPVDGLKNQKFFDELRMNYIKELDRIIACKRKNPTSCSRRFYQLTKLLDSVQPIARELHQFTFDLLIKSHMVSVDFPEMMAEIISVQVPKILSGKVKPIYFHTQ
Description: Binding affinity to androgen receptor

Estrogen receptor beta [1] = target: T2, Estrogen receptor beta (Homo sapiens, UniProt Q92731)
Description: Agonist activity at human recombinant ERbeta expressed in HEK293 cells by transactivation assay

Estrogen receptor [2] = target: T3, Estrogen receptor (Homo sapiens, UniProt P03372)
T3 sequence (P03372 whole entry): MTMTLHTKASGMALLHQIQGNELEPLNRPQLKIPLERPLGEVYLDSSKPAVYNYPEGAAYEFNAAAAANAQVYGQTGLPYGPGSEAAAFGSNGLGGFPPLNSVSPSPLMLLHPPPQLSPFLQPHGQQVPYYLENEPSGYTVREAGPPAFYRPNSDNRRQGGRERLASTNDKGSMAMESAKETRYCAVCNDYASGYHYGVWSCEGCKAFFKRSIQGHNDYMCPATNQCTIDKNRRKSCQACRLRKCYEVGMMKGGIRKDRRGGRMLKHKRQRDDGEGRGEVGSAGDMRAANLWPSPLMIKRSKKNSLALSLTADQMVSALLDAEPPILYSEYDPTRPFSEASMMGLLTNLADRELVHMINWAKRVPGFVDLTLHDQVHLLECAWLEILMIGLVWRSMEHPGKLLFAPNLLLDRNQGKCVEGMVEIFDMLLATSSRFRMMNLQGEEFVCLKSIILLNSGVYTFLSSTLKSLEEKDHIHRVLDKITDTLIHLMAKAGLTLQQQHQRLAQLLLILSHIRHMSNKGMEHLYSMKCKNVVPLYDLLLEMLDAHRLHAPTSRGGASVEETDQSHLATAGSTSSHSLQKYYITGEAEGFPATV
Description: Binding affinity to human recombinant ERalpha by scintillation proximity assay

Estrogen receptor [3] = target: T3, Estrogen receptor; remark: listed apart in the source
Description: Agonist activity at human recombinant ERalpha expressed in HEK293 cells by transactivation assay

Estrogen receptor beta [4] = target: T2, Estrogen receptor beta; remark: listed apart in the source
Description: Binding affinity to human recombinant ERbeta by scintillation proximity assay

T2 sequence (Q92731 whole entry): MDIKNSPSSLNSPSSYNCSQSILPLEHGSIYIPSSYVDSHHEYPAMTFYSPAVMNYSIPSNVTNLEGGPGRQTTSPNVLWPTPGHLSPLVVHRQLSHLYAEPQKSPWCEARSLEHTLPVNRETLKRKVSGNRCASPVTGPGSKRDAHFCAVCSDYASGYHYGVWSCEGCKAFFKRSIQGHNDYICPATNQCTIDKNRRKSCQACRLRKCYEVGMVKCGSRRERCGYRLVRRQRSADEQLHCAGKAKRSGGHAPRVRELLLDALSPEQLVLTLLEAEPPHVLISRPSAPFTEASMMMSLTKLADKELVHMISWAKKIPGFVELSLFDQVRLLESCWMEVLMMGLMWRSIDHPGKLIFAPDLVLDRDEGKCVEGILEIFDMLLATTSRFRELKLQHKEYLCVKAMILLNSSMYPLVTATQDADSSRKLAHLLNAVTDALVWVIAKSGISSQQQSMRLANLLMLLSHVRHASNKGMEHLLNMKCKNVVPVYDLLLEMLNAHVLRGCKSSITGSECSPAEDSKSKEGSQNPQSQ

SMILES | IC50 (Androgen receptor) [nM] | EC50 (Estrogen receptor beta [1]) [nM] | IC50 (Estrogen receptor [2]) [nM] | EC50 (Estrogen receptor [3]) [nM] | IC50 (Estrogen receptor beta [4]) [nM]
C[C@]12CC[C@H]3[C@@H](CC=C4[C@H]5CC[C@]43CC[C@@H]5O)[C@@H]1CC[C@@H]2O | 1380 | 28 | 317 | 44 | 50
C[C@]12CC[C@H]3[C@@H](CC=C4[C@H]5CC[C@]43CC[C@H]5O)[C@@H]1CC[C@@H]2O | 1120 | 198 | 8130 | 435 | 854
C[C@]12CC[C@H]3[C@@H](CC=C4[C@@H]5C(=O)CC[C@@]43C[C@H]5O)[C@@H]1CC[C@@H]2O | > 1000 | > 1000 | > 10000 | > 1000 | > 10000
C[C@]12CC[C@H]3[C@@H](CC=C4[C@@H]5C(=O)CC[C@@]43C[C@@H]5O)[C@@H]1CC[C@@H]2O | > 1000 | > 1000 | > 10000 | > 1000 | > 10000
C[C@]12CC[C@H]3[C@@H](CC=C4C[C@@H]5CC[C@@]43CC(=O)O5)[C@@H]1CC[C@@H]2O | > 1000 | > 1000 | > 10000 | > 1000 | > 10000
C=C[C@]12CC[C@H](O)CC1=CC[C@H]1[C@@H]3CC[C@H](O)[C@@]3(C)CC[C@@H]12 |  | 4 | 2240 | 980 | 
C/C=C\[C@]12CC[C@H](O)CC1=CC[C@H]1[C@@H]3CC[C@H](O)[C@@]3(C)CC[C@@H]12 | 718 | 21 | 1960 | 344 | 16
C=C[C@]12CCC(=O)C=C1CC[C@H]1[C@@H]3CC[C@H](O)[C@@]3(C)CC[C@@H]12 |  |  | > 10000 | > 1000 | 
C[C@]12CC[C@H]3[C@@H](CC=C4[C@H]5CC=C[C@]43CC[C@@H]5O)[C@@H]1CC[C@@H]2O | 85 | 132 | 2240 | 4890 | 157
CC[C@]12CC[C@H](O)CC1=CC[C@@H]1[C@@H]2CC[C@]2(C)[C@@H](O)CC[C@@H]12 | 88 |  | 2330 |  | 16
C=CC[C@@H]1C2=CC[C@H]3[C@@H]4CC[C@H](O)[C@@]4(C)CC[C@@H]3[C@@]2(C=C)CC[C@@H]1O | 15 | > 1000 | > 10000 | > 1000 | 3020
C[C@]12CC[C@H]3[C@@H](CC[C@H]4[C@H]5CCC[C@]43CC[C@@H]5O)[C@@H]1CC[C@@H]2O | 68 | 219 | 4990 | 1300 | 322
C[C@]12CC[C@H]3[C@@H](CC=C4C[C@@H]5CC[C@@]43CCO5)[C@@H]1CC[C@@H]2O | 710 | 440 | > 10000 | > 1000 | > 10000
C[C@]12CC[C@H]3[C@@H](CC=C4[C@H]5CC[C@]43CCC5=O)[C@@H]1CC[C@@H]2O |  | 86 | > 10000 | 407 | 1460
C[C@]12CC[C@H]3[C@@H](CC4C5=CC(=O)CC[C@@]53C[C@H]4O)[C@@H]1CC[C@@H]2O | > 1000 | > 1000 | > 10000 | > 1000 | > 10000
